Measured values published in patent publication US9693556B2, “Herbicidal pyridazinone derivatives” (SYNGENTA LIMITED, priority 2011, dated 2017).

Assays:
Assay type in all cases: in vivo
[1] = test system: Alopecurus myosuroides (ALOMY); assay: Pre-emergence herbicidal glasshouse test on Alopecurus myosuroides; conditions: pre-emergence; 1000 g/h; evaluated after 13 days
Method in brief: (§1)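 Herbicidal damage was rated 13 days after treatment on a five-point scale, where 5 denotes 80-100% and 1 denotes 0-19% damage. Spraying at 1000 g/h followed sowing by one day (pre-emergence) or eight days (post-emergence).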

Setaria faberi (SETFA) [2] = assay: Pre-emergence herbicidal glasshouse test on Setaria faberi; conditions: pre-emergence; 1000 g/h; evaluated after 13 days
Method in brief: as §1

[3] = test system: Echinochloa crus-galli (ECHCG); assay: Pre-emergence herbicidal glasshouse test on Echinochloa crus-galli; conditions: pre-emergence; 1000 g/h; evaluated after 13 days
Method in brief: as §1

Solanum nigrum (SOLNI) [4] = assay: Pre-emergence herbicidal glasshouse test on Solanum nigrum; conditions: pre-emergence; 1000 g/h; evaluated after 13 days
Method in brief: as §1

[5] = test system: Amaranthus retoflexus (AMARE); assay: Pre-emergence herbicidal glasshouse test on Amaranthus retoflexus; conditions: pre-emergence; 1000 g/h; evaluated after 13 days
Method in brief: as §1

[6] = test system: Ipomoea hederacea (IPOHE); assay: Pre-emergence herbicidal glasshouse test on Ipomoea hederacea; conditions: pre-emergence; 1000 g/h; evaluated after 13 days
Method in brief: as §1

[7] = test system: Alopecurus myosuroides (ALOMY); assay: Post-emergence herbicidal glasshouse test on Alopecurus myosuroides; conditions: post-emergence; 1000 g/h; evaluated after 13 days
Method in brief: as §1

Setaria faberi (SETFA) [8] = assay: Post-emergence herbicidal glasshouse test on Setaria faberi; conditions: post-emergence; 1000 g/h; evaluated after 13 days
Method in brief: as §1

[9] = test system: Echinochloa crus-galli (ECHCG); assay: Post-emergence herbicidal glasshouse test on Echinochloa crus-galli; conditions: post-emergence; 1000 g/h; evaluated after 13 days
Method in brief: as §1

Solanum nigrum (SOLNI) [10] = assay: Post-emergence herbicidal glasshouse test on Solanum nigrum; conditions: post-emergence; 1000 g/h; evaluated after 13 days
Method in brief: as §1

[11] = test system: Amaranthus retoflexus (AMARE); assay: Post-emergence herbicidal glasshouse test on Amaranthus retoflexus; conditions: post-emergence; 1000 g/h; evaluated after 13 days
Method in brief: as §1

[12] = test system: Ipomoea hederacea (IPOHE); assay: Post-emergence herbicidal glasshouse test on Ipomoea hederacea; conditions: post-emergence; 1000 g/h; evaluated after 13 days
Method in brief: as §1

SMILES	PRE Application ALOMY herbicidal damage (five point scale) [1]	PRE Application SETFA herbicidal damage (five point scale) (Setaria faberi (SETFA) [2])	PRE Application ECHCG herbicidal damage (five point scale) [3]	PRE Application SOLNI herbicidal damage (five point scale) (Solanum nigrum (SOLNI) [4])	PRE Application AMARE herbicidal damage (five point scale) [5]	PRE Application IPOHE herbicidal damage (five point scale) [6]	POST Application ALOMY herbicidal damage (five point scale) [7]	POST Application SETFA herbicidal damage (five point scale) (Setaria faberi (SETFA) [8])	POST Application ECHCG herbicidal damage (five point scale) [9]	POST Application SOLNI herbicidal damage (five point scale) (Solanum nigrum (SOLNI) [10])	POST Application AMARE herbicidal damage (five point scale) [11]	POST Application IPOHE herbicidal damage (five point scale) [12]
CCn1ncc(-c2ccc(C(F)(F)F)cc2S(C)(=O)=O)c(O)c1=O [Compound 2.016]	5 (5=80-100% damage)	5 (5=80-100% damage)	5 (5=80-100% damage)	5 (5=80-100% damage)	5 (5=80-100% damage)	5 (5=80-100% damage)	5 (5=80-100% damage)	5 (5=80-100% damage)	5 (5=80-100% damage)	5 (5=80-100% damage)	5 (5=80-100% damage)	5 (5=80-100% damage)
CCC(C)n1ncc(-c2ccc(S(C)(=O)=O)c(C3=NOCC3)c2C)c(O)c1=O (stereo not drawn) [Compound 1.003]	1 (1=0-19% damage)	1 (1=0-19% damage)	5 (5=80-100% damage)	4 (4=60-79% damage)	5 (5=80-100% damage)	3 (3=40-59% damage)	2 (2=20-39% damage)	5 (5=80-100% damage)	5 (5=80-100% damage)	5 (5=80-100% damage)	5 (5=80-100% damage)	5 (5=80-100% damage)
Cc1ccc(-n2cccc(-c3cnn(C)c(=O)c3O)c2=O)cc1 [Compound 9.017]	2 (2=20-39% damage)	1 (1=0-19% damage)	1 (1=0-19% damage)	1 (1=0-19% damage)	1 (1=0-19% damage)	2 (2=20-39% damage)	2 (2=20-39% damage)	2 (2=20-39% damage)	5 (5=80-100% damage)	4 (4=60-79% damage)	3 (3=40-59% damage)	2 (2=20-39% damage)
CCSC(=O)Oc1c(-c2ccc(C(F)(F)F)cc2S(C)(=O)=O)cnn(C)c1=O [Compound 3.004, [2-methyl-5-[2-methylsulfonyl-4-(trifluoromethyl)phenyl]-3-oxo-pyridazin-4-yl]ethylsulfanylformate]	5 (5=80-100% damage)	5 (5=80-100% damage)	5 (5=80-100% damage)	5 (5=80-100% damage)	5 (5=80-100% damage)	5 (5=80-100% damage)	5 (5=80-100% damage)	5 (5=80-100% damage)	5 (5=80-100% damage)	5 (5=80-100% damage)	5 (5=80-100% damage)	5 (5=80-100% damage)
Cn1ncc(-c2ccc(C(F)(F)F)nc2S(C)(=O)=O)c(O)c1=O [Compound 4.003]	5 (5=80-100% damage)	5 (5=80-100% damage)	5 (5=80-100% damage)	5 (5=80-100% damage)	5 (5=80-100% damage)	5 (5=80-100% damage)	5 (5=80-100% damage)	5 (5=80-100% damage)	5 (5=80-100% damage)	5 (5=80-100% damage)	5 (5=80-100% damage)	5 (5=80-100% damage)
